Drawing on ChEMBL document CHEMBL5291721, “A preclinical secondary pharmacology resource illuminates target-adverse drug reaction associations of marketed drugs” (Nat Commun, 2023), this text covers AC50 for 15 compounds.

The target of one experiment is T1, Thromboxane A2 receptor (Homo sapiens, UniProt P21731).
T1 sequence (P21731 whole entry): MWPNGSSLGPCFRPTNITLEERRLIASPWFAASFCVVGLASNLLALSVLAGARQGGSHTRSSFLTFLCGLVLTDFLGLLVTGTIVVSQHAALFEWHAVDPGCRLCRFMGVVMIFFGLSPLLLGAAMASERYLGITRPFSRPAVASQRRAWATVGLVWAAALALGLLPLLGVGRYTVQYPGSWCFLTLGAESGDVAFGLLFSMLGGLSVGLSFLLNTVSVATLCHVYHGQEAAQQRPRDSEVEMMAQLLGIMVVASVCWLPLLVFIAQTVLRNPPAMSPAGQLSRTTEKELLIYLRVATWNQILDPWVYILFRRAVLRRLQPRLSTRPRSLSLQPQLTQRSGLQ
The class given is functional, cell-based.

For another experiment, the target named is T2, Progesterone receptor (Homo sapiens, UniProt P06401).
T2 sequence (P06401 whole entry): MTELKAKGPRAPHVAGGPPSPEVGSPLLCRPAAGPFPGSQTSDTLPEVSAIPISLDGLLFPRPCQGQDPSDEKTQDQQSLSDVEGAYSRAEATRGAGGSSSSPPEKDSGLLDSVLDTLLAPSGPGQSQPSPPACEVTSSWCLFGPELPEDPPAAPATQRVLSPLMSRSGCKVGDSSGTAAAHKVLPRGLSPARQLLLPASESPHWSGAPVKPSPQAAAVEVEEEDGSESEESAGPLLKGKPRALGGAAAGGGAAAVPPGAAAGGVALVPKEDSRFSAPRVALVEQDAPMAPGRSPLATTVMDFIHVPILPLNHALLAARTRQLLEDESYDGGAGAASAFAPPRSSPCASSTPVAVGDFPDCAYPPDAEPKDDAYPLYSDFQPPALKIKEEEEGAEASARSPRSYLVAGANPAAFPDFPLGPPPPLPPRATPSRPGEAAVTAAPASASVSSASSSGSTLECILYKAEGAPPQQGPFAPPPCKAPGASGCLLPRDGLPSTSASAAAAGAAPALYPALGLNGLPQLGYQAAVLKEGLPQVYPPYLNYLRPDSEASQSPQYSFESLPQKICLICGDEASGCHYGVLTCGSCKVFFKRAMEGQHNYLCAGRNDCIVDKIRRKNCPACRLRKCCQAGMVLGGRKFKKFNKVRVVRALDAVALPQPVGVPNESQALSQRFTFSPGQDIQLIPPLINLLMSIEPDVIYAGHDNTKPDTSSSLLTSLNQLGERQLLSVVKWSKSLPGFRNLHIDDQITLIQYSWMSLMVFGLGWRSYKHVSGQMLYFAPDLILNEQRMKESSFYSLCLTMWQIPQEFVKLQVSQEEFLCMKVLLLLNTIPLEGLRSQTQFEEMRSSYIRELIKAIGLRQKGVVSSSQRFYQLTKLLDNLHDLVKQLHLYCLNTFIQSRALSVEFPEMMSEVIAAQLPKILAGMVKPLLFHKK

In experiment [1] the target is T3, Prostaglandin G/H synthase 1 (Rattus norvegicus, UniProt Q63921).
T3 sequence (Q63921 whole entry): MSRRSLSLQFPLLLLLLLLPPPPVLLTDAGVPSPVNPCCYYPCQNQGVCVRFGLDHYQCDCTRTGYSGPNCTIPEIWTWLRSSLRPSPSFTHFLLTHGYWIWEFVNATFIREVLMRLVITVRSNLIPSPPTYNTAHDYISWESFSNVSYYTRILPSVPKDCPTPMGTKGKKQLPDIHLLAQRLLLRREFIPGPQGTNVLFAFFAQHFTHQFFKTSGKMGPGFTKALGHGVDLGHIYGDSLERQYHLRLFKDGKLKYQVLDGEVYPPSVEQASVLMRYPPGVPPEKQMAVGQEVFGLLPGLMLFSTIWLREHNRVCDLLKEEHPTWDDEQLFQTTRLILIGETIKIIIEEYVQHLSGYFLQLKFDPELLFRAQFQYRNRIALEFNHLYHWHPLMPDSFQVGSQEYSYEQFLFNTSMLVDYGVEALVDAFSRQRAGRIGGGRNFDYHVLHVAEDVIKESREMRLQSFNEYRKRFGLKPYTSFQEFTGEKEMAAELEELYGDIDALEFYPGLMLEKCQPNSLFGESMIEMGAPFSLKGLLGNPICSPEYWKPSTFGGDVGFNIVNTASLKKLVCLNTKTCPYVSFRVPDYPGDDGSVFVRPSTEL
The class given is functional.

For a further experiment, the target named is Prothrombin (Homo sapiens, UniProt P00734). The experiment is classed as functional.
Another experiment addresses Mu-type opioid receptor (Homo sapiens, UniProt P35372).
Experiment [2] addresses Sodium-dependent noradrenaline transporter (Homo sapiens, UniProt P23975).
The target of experiment [3] is 3',5'-cyclic-AMP phosphodiesterase 4D (Homo sapiens, UniProt Q08499). The experiment is classed as functional.
Another experiment has as its target D(3) dopamine receptor (Homo sapiens, UniProt P35462).
For experiment [4], the target named is T4, Muscarinic acetylcholine receptor M2 (Homo sapiens, UniProt P08172).
T4 sequence (P08172 whole entry): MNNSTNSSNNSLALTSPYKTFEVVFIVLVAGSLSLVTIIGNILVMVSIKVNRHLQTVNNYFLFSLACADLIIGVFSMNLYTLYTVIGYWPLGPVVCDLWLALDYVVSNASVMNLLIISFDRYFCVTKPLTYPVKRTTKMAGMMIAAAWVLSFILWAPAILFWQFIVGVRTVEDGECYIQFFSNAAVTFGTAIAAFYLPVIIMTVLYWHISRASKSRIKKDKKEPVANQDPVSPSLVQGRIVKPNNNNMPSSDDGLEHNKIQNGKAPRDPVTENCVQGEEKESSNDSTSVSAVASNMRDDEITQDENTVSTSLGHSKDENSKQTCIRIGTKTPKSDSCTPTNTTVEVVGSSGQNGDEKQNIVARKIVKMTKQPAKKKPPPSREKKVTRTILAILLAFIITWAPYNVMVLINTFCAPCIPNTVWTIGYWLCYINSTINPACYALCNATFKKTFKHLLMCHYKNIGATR
Note: assay procedure not described here.

3',5'-cyclic-AMP phosphodiesterase 4D, sequence (Q08499 whole entry): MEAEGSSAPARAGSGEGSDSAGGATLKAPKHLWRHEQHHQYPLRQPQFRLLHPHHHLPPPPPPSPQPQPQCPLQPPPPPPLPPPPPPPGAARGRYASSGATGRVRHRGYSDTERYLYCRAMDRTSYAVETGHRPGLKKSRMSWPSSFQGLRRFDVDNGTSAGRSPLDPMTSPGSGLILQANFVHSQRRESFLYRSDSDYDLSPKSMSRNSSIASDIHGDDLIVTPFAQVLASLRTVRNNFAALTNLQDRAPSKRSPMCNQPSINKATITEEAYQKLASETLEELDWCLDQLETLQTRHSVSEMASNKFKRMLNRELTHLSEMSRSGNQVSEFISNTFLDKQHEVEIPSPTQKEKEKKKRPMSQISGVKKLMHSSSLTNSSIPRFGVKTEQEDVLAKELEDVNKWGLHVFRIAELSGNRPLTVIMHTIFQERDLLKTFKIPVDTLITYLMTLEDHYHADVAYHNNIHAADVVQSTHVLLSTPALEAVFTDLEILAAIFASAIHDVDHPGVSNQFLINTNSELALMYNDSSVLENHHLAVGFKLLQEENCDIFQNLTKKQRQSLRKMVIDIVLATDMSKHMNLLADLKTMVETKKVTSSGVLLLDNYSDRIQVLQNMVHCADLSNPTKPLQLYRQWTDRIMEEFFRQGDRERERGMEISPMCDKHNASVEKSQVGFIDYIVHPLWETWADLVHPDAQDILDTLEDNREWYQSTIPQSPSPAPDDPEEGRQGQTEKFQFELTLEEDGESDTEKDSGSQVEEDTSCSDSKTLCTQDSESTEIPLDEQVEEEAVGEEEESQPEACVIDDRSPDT
Sodium-dependent noradrenaline transporter, sequence (P23975 whole entry): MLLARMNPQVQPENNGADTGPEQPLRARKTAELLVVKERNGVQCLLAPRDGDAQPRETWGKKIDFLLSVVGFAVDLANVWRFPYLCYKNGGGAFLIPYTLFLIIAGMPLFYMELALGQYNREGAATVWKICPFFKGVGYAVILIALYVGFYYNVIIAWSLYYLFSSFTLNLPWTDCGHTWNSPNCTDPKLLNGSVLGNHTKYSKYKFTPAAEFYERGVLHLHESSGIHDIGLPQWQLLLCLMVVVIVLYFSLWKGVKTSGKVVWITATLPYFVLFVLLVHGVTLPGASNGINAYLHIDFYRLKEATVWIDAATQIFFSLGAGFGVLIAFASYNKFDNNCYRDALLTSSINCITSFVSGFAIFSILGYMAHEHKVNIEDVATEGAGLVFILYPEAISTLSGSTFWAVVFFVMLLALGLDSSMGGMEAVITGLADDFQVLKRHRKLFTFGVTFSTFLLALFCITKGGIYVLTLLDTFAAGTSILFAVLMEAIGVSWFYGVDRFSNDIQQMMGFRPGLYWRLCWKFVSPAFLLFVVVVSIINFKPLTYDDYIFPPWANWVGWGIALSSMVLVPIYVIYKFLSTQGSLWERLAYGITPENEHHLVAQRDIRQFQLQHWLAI
D(3) dopamine receptor, sequence (P35462 whole entry): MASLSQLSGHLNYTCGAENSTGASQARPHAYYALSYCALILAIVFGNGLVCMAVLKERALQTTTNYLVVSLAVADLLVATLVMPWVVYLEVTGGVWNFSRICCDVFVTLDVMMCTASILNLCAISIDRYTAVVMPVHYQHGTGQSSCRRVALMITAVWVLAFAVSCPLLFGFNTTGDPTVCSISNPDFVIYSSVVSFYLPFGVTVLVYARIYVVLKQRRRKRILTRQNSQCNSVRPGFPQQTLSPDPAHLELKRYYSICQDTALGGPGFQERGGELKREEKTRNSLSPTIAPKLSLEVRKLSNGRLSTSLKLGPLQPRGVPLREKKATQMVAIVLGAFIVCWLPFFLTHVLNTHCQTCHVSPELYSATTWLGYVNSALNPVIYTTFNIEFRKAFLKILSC
Mu-type opioid receptor, sequence (P35372 whole entry): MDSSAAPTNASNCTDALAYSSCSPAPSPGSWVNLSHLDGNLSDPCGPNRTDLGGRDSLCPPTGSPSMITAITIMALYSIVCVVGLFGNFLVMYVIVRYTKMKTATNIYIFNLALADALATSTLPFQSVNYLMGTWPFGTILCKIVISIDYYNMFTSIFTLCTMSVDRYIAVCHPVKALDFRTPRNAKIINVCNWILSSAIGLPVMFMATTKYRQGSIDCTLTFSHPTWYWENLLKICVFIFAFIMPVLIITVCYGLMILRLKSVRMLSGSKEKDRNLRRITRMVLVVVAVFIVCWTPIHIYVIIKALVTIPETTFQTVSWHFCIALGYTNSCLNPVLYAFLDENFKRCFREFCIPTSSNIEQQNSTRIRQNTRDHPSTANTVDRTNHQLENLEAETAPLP

As to `CCCc1nc2c(C)cc(-c3nc4ccccc4n3C)cc2n1Cc1ccc(-c2ccccc2C(=O)O)cc1`, the AC50 (in general, the concentration giving half of the maximal activity seen) on Thromboxane A2 receptor is over 1 µM; at Progesterone receptor, over 30 µM; in experiment [1], over 30 µM; at Prothrombin, over 30 µM; on Mu-type opioid receptor it was 10.8 µM; in experiment [2], over 30 µM. Further, the AC50 in [3] is 7.1 µM; on D(3) dopamine receptor it was over 30 µM; in experiment [4] it was over 30 µM.

`O=C(O)Cc1ccccc1Nc1c(Cl)cccc1Cl` [DICLOFENAC]: the AC50 at Thromboxane A2 receptor was over 3 µM; on Progesterone receptor, over 3 µM; at Prothrombin, over 3 µM; on Mu-type opioid receptor, over 30 µM; in [2], over 3 µM; in [3] it was over 30 µM. In addition, the half-maximal activity concentration (AC50) (at D(3) dopamine receptor; in experiment [4]) was over 3 µM each time.

On to `O=C(O)Cc1ccccc1Oc1ccc(Cl)cc1Cl` [FENCLOFENAC], for which the AC50 (at Thromboxane A2 receptor; at Progesterone receptor; in experiment [1]; at Prothrombin; at Mu-type opioid receptor; in experiment [2]) was over 30 µM in each case. Also, the concentration at half-maximal activity (AC50) in experiment [3] was over 10 µM; on D(3) dopamine receptor, over 30 µM; in experiment [4], over 30 µM.

Take `Cc1ccc(C)c(OCCCC(C)(C)C(=O)O)c1` [GEMFIBROZIL]: the AC50 (at Thromboxane A2 receptor; at Progesterone receptor; in experiment [1]; on Prothrombin; on Mu-type opioid receptor; in experiment [2]) was over 30 µM in each case. The AC50 (in experiment [3]; on D(3) dopamine receptor; in [4]) was over 30 µM in each case.

On to `COc1cc(C(C)=O)ccc1OCCCN1CCC(c2noc3cc(F)ccc23)CC1` [ILOPERIDONE], for which the AC50 on Thromboxane A2 receptor is over 10 µM; on Progesterone receptor, over 30 µM; in [1] it was over 30 µM; on Prothrombin, over 30 µM; at Mu-type opioid receptor, 10 µM; in experiment [2], 1.19 µM. The half-maximal activity concentration (AC50) in experiment [3] is over 30 µM; at D(3) dopamine receptor, 0.0099 µM; in [4], 2.18 µM.

For the compound `CC[C@H](C)C(=O)O[C@H]1C[C@@H](C)C=C2C=C[C@H](C)[C@H](CC[C@@H]3C[C@@H](O)CC(=O)O3)[C@H]21` [LOVASTATIN], the AC50 (in [1]; on Mu-type opioid receptor; in experiment [3]) was over 30 µM throughout.

Regarding `CC[C@@H](CO)NC(=O)[C@@H]1C=C2c3cccc4c3c(cn4C)C[C@H]2N(C)C1` [METHYSERGIDE], the AC50 (in [1]; on Mu-type opioid receptor; in [3]) was over 30 µM throughout.

For the compound `CNC(=C[N+](=O)[O-])NCCSCc1csc(CN(C)C)n1` [NIZATIDINE], the values for the AC50 (in experiment [1]; on Mu-type opioid receptor; in [3]) were over 10 µM, over 30 µM and over 30 µM, respectively.

For the compound `CN1Cc2c(N)cccc2C(c2ccccc2)C1` (centres undefined) [NOMIFENSINE], the results for the AC50 (in [1]; at Mu-type opioid receptor; in experiment [3]) were 7.5 µM, 4.4 µM and over 30 µM, respectively.

Consider `CCCc1cc(=O)[nH]c(=S)[nH]1` [PROPYLTHIOURACIL], for which the half-maximal activity concentration (AC50) in experiment [1] was 6.6 µM; on Mu-type opioid receptor it was over 30 µM; in [3], over 30 µM.

As for `CN(CCOc1ccc(CC2SC(=O)NC2=O)cc1)c1ccccn1` (centres undefined) [ROSIGLITAZONE], the half-maximal activity concentration (AC50) is over 30 µM in [1], over 10 µM on Mu-type opioid receptor and 29 µM in experiment [3].

In the case of `S=P(N1CC1)(N1CC1)N1CC1` [THIOTEPA], the AC50 is over 30 µM in experiment [1], 28 µM on Mu-type opioid receptor and over 30 µM in experiment [3].

In the case of `CC(C)[C@H](N)C(=O)OCCOCn1cnc2c(=O)[nH]c(N)nc21` [VALACYCLOVIR], the half-maximal activity concentration (AC50) (in [1]; at Mu-type opioid receptor; in experiment [3]) was over 30 µM throughout.

As to `COc1cc(C(=O)NS(=O)(=O)c2ccccc2C)ccc1Cc1cn(C)c2ccc(NC(=O)OC3CCCC3)cc12` [ZAFIRLUKAST], the AC50 is 5.1 µM in experiment [1], over 30 µM on Mu-type opioid receptor and 5.4 µM in experiment [3].

With `O=C1Cc2cc(CCN3CCN(c4nsc5ccccc45)CC3)c(Cl)cc2N1` [ZIPRASIDONE], the AC50 on Thromboxane A2 receptor is over 30 µM; on Progesterone receptor, over 30 µM; in experiment [1], over 30 µM; at Prothrombin it was over 30 µM; at Mu-type opioid receptor it was over 30 µM; in [2], 0.507 µM. For the same compound, the concentration at half-maximal activity (AC50) in experiment [3] is over 30 µM; in [4], 7.14 µM.
